Measurements as given in patent publication US20170021014A1, “VACCINE ADJUVANTS FOR CYTOMEGALOVIRUS PREVENTION AND TREATMENT” (THE JOHNS HOPKINS UNIVERSITY, priority 2015, published 2017).

Assays:
[1] = tested on: secreted IFN-β; assay: IFN-β specific ELISA of supernatants; type: cell-based, Human; conditions: MDP pretreatment 18 or 72 h, MOI 1, 24 h
Method: The effect of MDP pretreatment on levels of secreted IFN-β in supernatants from non-infected or HCMV-infected HFFs was measured by IFN-β specific ELISA kit (PBL Assay Science, Piscataway, N.J.).

[2] = tested on: IL8 mRNA; assay: qRT-PCR of IL8 mRNA in HFFs; type: cell-based, Human
Method: (§1) Total RNA was isolated from cells using RNAeasy Mini kit (Qiagen, Georgetown, Md.) according to manufacturer's instructions. RevertAid first strand cDNA synthesis kit (Fermentas life sciences, Cromwell Park, Md.) was used to synthesize first strand cDNA from total RNA using oligo-dT primers. Negative reverse-transcriptase (−RT) reactions were included to ensure the specificity of qRT-PCR reactions. Synthesis of first strand cDNA from mRNA template was carried out at 42° C. for 1 h. Quantitative RT-PCR was performed using specific primers and SYBR green (Fermentas life science) with two-step cycling protocol (95° C. for 15 s, 60° C. for 1 min). All reactions were performed in triplicates and GAPDH was used as internal control. The expression level of the tested genes was normalized to the expression of GAPDH.

[3] = tested on: HCMV TB40; assay: Plaque reduction assay in HFFs, HCMV TB40; type: cell-based, human cytomegalovirus; conditions: MDP 10 μg/mL pretreatment 72 h, 100 PFU/well, 10 days
Method: (§2) A plaque reduction assay was performed in HFFs to determine the effects of MDP treatment either before or after infection on virus replication. HFFs were seeded into 12-well plates (2×10^5 cells/well) and infected with Towne HCMV at approximately 100 plaques/well. After 90 minutes, media were aspirated, and DMEM containing 0.5% carboxymethyl-cellulose (CMC), 4% fetal bovine serum (FBS), and MDP at final concentration of 10 μg/mL were added into duplicate wells. In pretreatment experiments HFFs were first treated with MDP (10 μg/mL) for 72 h after which infection with the Towne or TB40 strains was carried out at approximately 100 plaques/well. After 90 minute adsorption, media were aspirated, and DMEM containing 0.5% CMC and 4% FBS were added into duplicate wells. After incubation at 37° C. for 8 days (Towne) or 10 days (TB40) the overlay was removed and plaques were counted after crystal violet staining.

[4] = tested on: pp28-luciferase Towne strain; assay: Virus titration of first cycle supernatants by plaque assay; type: cell-based, human cytomegalovirus; conditions: MDP-pretreated cells, plaques at 8 days
Method: Human Foreskin Fibroblasts (HFFs) passage 12-16 (ATCC, CRL-2088™) were grown in Dulbecco's Modified Eagle Medium (DMEM) containing 10% fetal bovine serum (FBS) (Gibco, Carlsbad, Calif.) in a 5% CO2 incubator at 37° C. The generation of NOD2-KD HFFs (HFF-shNOD2) and control cells (HFF-GIPZ) was reported. One day prior to infection or treatment, 8×10^4 cells were seeded into each well of 12-well tissue culture plates. Multiplicities of infection were specified for each experiment. The Towne HCMV strain was obtained from ATCC (VR-977). The pp28-luciferase Towne strain which expresses luciferase under the control of the pp28 late promoter has been described. Luciferase activity was measured at 72 or 96 hours post infection (hpi) using the Glomax-Multi+ Detection System (Promega, Madison, Wis.). In second cycle replication assays cell free supernatants from HFFs infected with pp28-luciferase Towne were collected 4 days post completion of first replication cycle (5-10% of total volume/well), and used for infection of fresh HFFs seeded into 12-well plates. […] Supernatants from the first cycle were also used to measure virus titer in 12-well plates and plaques were counted at day 8 post infection. […] The Johns Hopkins School of Medicine Office of Human Subject Research Institutional Review Board (IRB-X) determined that the research qualified for an exemption.

[5] = tested on: IFN-β mRNA; assay: qRT-PCR of IFN-β mRNA in HFFs; type: cell-based, Human
Method: as §1

[6] = tested on: clinical isolate of HCMV; assay: Immunofluorescence staining for HCMV IE1/2; type: cell-based, human cytomegalovirus; conditions: GIPZ HFFs, MDP pretreatment 72 h, infected 24 h, MOI 1
Method: GIPZ control and shIFN-β HFFs were seeded into 96-well plate (1×10^4 cells/well) and pretreated with MDP (10 μg/mL) for 72 h. Cells were then infected with a clinical isolate of HCMV at MOI 1. Twenty-four hours after infection, cells were fixed with methanol/acetone (1:1) at −20° C. for 10 min. Cells were then blocked with 7.5% BSA for 30 min. and incubated for 1 h with anti-human CMV IE1&2 antibody (MAB810) (1:500 in 0.5% BSA). After 3 washes with PBS, cells were incubated with FITC-anti mouse antibody (F8521, Sigma, 1:500, in 0.5% BSA) for 1 h. Then cells were washed 3 times with PBS and counterstained with propidium iodide (Invitrogen) for nuclear staining. Images were taken using Nikon Eclipse TS100 microscope.

[7] = tested on: HFFs; assay: MTT cell viability assay; type: cell-based, Human
Method: MTT assay (Sigma-Aldrich) was performed to rule out any cytotoxicity induced by MDP treatment. Cells (HFFs and transduced GIPZ/shIFNβ-HFFs as described below) were pretreated with MDP for 96- and 72 h, respectively and 20 μl/well of MTT [3-(4, 5-Dimethyl-2-thiazolyl)-2, 5-diphenyl-2H-tetrazolim bromide, 5 mg/mL in phosphate buffered saline (PBS)] was added to each well. After shaking plates at 150 rpm for 5 minutes the plates were incubated at 37° C. for 3 hours. Conversion of yellow solution to dark blue formazan by mitochondrial dehydrogenases of living cells was quantified by measuring absorbance at 560 nm.

[8] = tested on: pp28-luciferase Towne strain; assay: pp28-luciferase HCMV replication assay (first and second cycle); type: cell-based, human cytomegalovirus; conditions: for luciferase activity reduction, second cycle: MOI 1, second cycle 72 h
Method: Human Foreskin Fibroblasts (HFFs) passage 12-16 (ATCC, CRL-2088™) were grown in Dulbecco's Modified Eagle Medium (DMEM) containing 10% fetal bovine serum (FBS) (Gibco, Carlsbad, Calif.) in a 5% CO2 incubator at 37° C. The generation of NOD2-KD HFFs (HFF-shNOD2) and control cells (HFF-GIPZ) was reported. One day prior to infection or treatment, 8×10^4 cells were seeded into each well of 12-well tissue culture plates. Multiplicities of infection were specified for each experiment. The Towne HCMV strain was obtained from ATCC (VR-977). The pp28-luciferase Towne strain which expresses luciferase under the control of the pp28 late promoter has been described. Luciferase activity was measured at 72 or 96 hours post infection (hpi) using the Glomax-Multi+ Detection System (Promega, Madison, Wis.). In second cycle replication assays cell free supernatants from HFFs infected with pp28-luciferase Towne were collected 4 days post completion of first replication cycle (5-10% of total volume/well), and used for infection of fresh HFFs seeded into 12-well plates. Cell lysates were collected after 72 h for luciferase activity. Supernatants from the first cycle were also used to measure virus titer in 12-well plates and plaques were counted at day 8 post infection. A purified preparation of the pp28-luciferase Towne strain was prepared by ultracentrifugation using sucrose gradient. The HCMV TB40 strain was obtained from ATCC (VR-1578). Clinical isolates of HCMV were obtained from the microbiology laboratory at Johns Hopkins Hospital with no identifiers that could be linked to a patient. The Johns Hopkins School of Medicine Office of Human Subject Research Institutional Review Board (IRB-X) determined that the research qualified for an exemption.

[9] = tested on: HCMV Towne; assay: Plaque reduction assay in HFFs, HCMV Towne; type: cell-based, human cytomegalovirus
Method: as §2

[10] = HCMV-infected, MDP treatment, 4 hpi

CC(=O)N[C@H]1C(O)O[C@H](CO)[C@@H](O)[C@@H]1O[C@H](C)C(=O)N[C@@H](C)C(=O)N[C@H](CCC(=O)O)C(N)=O (mixture of isomers) [MDP, Muramyl dipeptide]
secreted IFN-β [1]: increased with the duration of MDP-pretreatment
increase in IL8 mRNA [2, 10]: 2 fold
further increase of IL8 mRNA ([2]; MDP after infection compared to MDP or HCMV alone, irrespective of MOI): 6-7 fold
IL8 expression induction ([2]; MDP alone, non-infected, 36 h): 3 fold
IL8 expression ([2]; MDP pretreatment 72 h, non-infected or HCMV-infected): modestly induced
plaque number reduction [3]: ~70%
reduction in virus titer [4]: 6 fold
increase in IFN-β mRNA [5, 10]: 2 fold
induction of IFN-β mRNA ([5]; MDP after infection at MOI 0.1, 36 hpi (infection only 15-fold)): 170 fold
induction of IFN-β mRNA ([5]; MDP after infection at MOI 1, 36 hpi (infection only 300-fold)): 800 fold
IFN-β expression induction ([5]; MDP alone, compared to non-infected cells, 36 h): 4 fold
IFN-β mRNA ([5]; MDP pretreatment 72 h then HCMV MOI 1 for 24 h): significant induction
IFN-β mRNA ([5]; non-infected HFFs, MDP pretreatment 72 h): did not result in IFN-β induction
nuclear IE1/2 expression [6]: reduced IE1/2 expression
cellular toxicity (MTT) ([7]; HFFs treated 96 h): no toxicity at any of the concentrations used
toxicity / cell growth (MTT) ([7]; control GIPZ or shIFN-β KD HFFs, MDP 10 μg/mL 72 h): No toxicity or difference in cell growth
pp28 activity reduction, first cycle ([8]; MDP pretreatment 10 μg/mL 72 h, MOI 0.1, 96 hpi): 80%
pp28 expression (luciferase activity), first cycle ([8]; MDP pretreatment 18 or 72 h, MOI 1, 96 hpi): modest reduction
luciferase activity reduction, second cycle ([8]; MDP pretreatment 18 h): approximately 45%
luciferase activity reduction, second cycle ([8]; MDP pretreatment 72 h): ~75%
plaque number ([9]; MDP 10 μg/mL after infection, 100 PFU/well, counted after 8 days): reduced plaque number
plaque number reduction ([9]; MDP 10 μg/mL pretreatment 72 h, 100 PFU/well, 8 days): approximately 90%
number of plaques ([9]; control GIPZ cells, MDP pretreatment 72 h, day 8): significantly decreased
virus replication (plaque number) ([9]; shIFN-β cells, MDP pretreatment 72 h, day 8): failed to restrict virus replication
